{"source": "patent US20150164812A1", "about": "“Porous Tablets As Carriers For Liquid Formulations” (Veloxis Pharmaceuticals A/S, priority 2004, published 2015)", "origin": "cited, not measured here", "key": {"[1]": {"assay": "not given", "remark": "listed apart in the source"}, "[2]": {"details": "Table 1 Poorly-Soluble Drug Candidates"}, "[3]": {"details": "Table 2 Poorly-Soluble Drugs with Low Bioavailability"}}, "note": "Structures can show the parent of a compound that is named as a salt. Where two headings read alike, the source gives them in different places."}
{"smiles": "CC(=O)O[C@H]1C(=O)[C@@]2(C)[C@H]([C@H](OC(=O)c3ccccc3)[C@]3(O)C[C@H](OC(=O)[C@H](O)[C@@H](NC(=O)c4ccccc4)c4ccccc4)C(C)=C1C3(C)C)[C@]1(OC(C)=O)CO[C@@H]1C[C@@H]2O", "note": "[Paclitaxel]", "values": [{"measurement": "Solubility In Water", "setting": "[2]", "result": "Insoluble"}]}
{"smiles": "CCOC(=O)[C@H](CCc1ccccc1)N[C@@H](C)C(=O)N1Cc2ccccc2C[C@H]1C(=O)O", "note": "[Quinapril]", "values": [{"measurement": "Solubility In Water", "setting": "[2]", "result": "Insoluble"}]}
{"smiles": "Cc1cccc(Nc2ccccc2C(=O)O)c1C", "note": "[Mefenamic acid]", "values": [{"measurement": "Solubility In Water", "setting": "[2]", "result": "Slightly"}]}
{"smiles": "CC(C)(C)NC(=O)[C@H]1CC[C@H]2[C@@H]3CC[C@H]4NC(=O)C=C[C@]4(C)[C@H]3CC[C@]12C", "note": "[Finasteride]", "values": [{"measurement": "Solubility In Water", "setting": "[2]", "result": "Insoluble"}]}
{"smiles": "CC(C)(C)c1ccc(C(O)CCCN2CCC(C(O)(c3ccccc3)c3ccccc3)CC2)cc1", "note": "(stereo not drawn) [Terfenadine]", "values": [{"measurement": "Solubility In Water", "setting": "[2]", "result": "Slightly"}]}
{"smiles": "C[C@]12CC[C@H]3[C@@H](CCC4=CC(=O)CC[C@@]43C)[C@@H]1CC[C@@H]2O", "note": "[Testosterone]", "values": [{"measurement": "Bioavailability", "setting": "[1]; in words", "result": "Low"}, {"measurement": "Solubility In Water", "setting": "[3]", "result": "Insoluble"}]}
{"smiles": "CO/N=C(\\C(=O)N[C@@H]1C(=O)N2C(C(=O)O)=C(COC(C)=O)CS[C@H]12)c1csc(N)n1", "note": "[Cefotaxime]", "values": [{"measurement": "Solubility In Water", "setting": "[2]", "result": "Sparingly"}]}
{"smiles": "CC1CC(OC(=O)C(O)c2ccccc2)CC(C)(C)C1", "note": "(stereo not drawn) [Cyclandelate]", "values": [{"measurement": "Bioavailability", "setting": "[1]; in words", "result": "Low"}, {"measurement": "Solubility In Water", "setting": "[3]", "result": "Insoluble"}]}
{"smiles": "COc1cc2nc(N3CCN(C(=O)C4COc5ccccc5O4)CC3)nc(N)c2cc1OC", "note": "(stereo not drawn) [Doxazosin]", "values": [{"measurement": "Solubility In Water", "setting": "[2]", "result": "Slightly"}]}
{"smiles": "CCOC(=O)C1=C(C)NC(C)=C(C(=O)OC)C1c1cccc(Cl)c1Cl", "note": "(stereo not drawn) [Felodipine]", "values": [{"measurement": "Solubility In Water", "setting": "[2]", "result": "Insoluble"}, {"measurement": "Solubility In Water", "setting": "[3]", "result": "Insoluble"}]}
{"smiles": "CC(C(=O)O)c1ccc(-c2ccccc2)c(F)c1", "note": "(stereo not drawn) [Flurbiprofen]", "values": [{"measurement": "Solubility In Water", "setting": "[2]", "result": "Slightly"}]}
{"smiles": "CC(=O)N1CCN(c2ccc(OCC3COC(Cn4ccnc4)(c4ccc(Cl)cc4Cl)O3)cc2)CC1", "note": "(stereo not drawn) [Ketoconazole]", "values": [{"measurement": "Solubility In Water", "setting": "[2]", "result": "Insoluble"}]}
{"smiles": "CCCCCc1cc(O)c2c(c1)OC(C)(C)[C@@H]1CCC(C)=C[C@@H]21", "note": "[Dronabinol]", "values": [{"measurement": "Solubility In Water", "setting": "[3]", "result": "Insoluble"}]}
{"smiles": "Cc1nnc2n1-c1ccc(Cl)cc1C(c1ccccc1)=NC2", "note": "[Alprazolam]", "values": [{"measurement": "Solubility In Water", "setting": "[2]", "result": "Insoluble"}]}
{"smiles": "CN1CCN(C2=Nc3cc(Cl)ccc3Nc3ccccc32)CC1", "note": "[Clozapine]", "values": [{"measurement": "Solubility In Water", "setting": "[2]", "result": "Slightly"}]}
{"smiles": "C[C@@](Cc1ccc(O)c(O)c1)(NN)C(=O)O", "note": "[Carbidopa]", "values": [{"measurement": "Solubility In Water", "setting": "[2]", "result": "Slightly"}]}
{"smiles": "COc1cc([C@@H]2c3cc4c(cc3[C@@H](O[C@@H]3O[C@@H]5CO[C@@H](C)O[C@H]5[C@H](O)[C@H]3O)[C@H]3COC(=O)[C@H]23)OCO4)cc(OC)c1O", "note": "[Etoposide]", "values": [{"measurement": "Solubility In Water", "setting": "[2]", "result": "Very Slightly"}]}
{"smiles": "C#C[C@]1(O)CC[C@H]2[C@@H]3CCC4=Cc5oncc5C[C@]4(C)[C@H]3CC[C@@]21C", "note": "[Danazol]", "values": [{"measurement": "Bioavailability", "setting": "[1]; in words", "result": "Low"}]}
{"smiles": "COCCCC/C(=N\\OCCN)c1ccc(C(F)(F)F)cc1", "note": "[Fluvoxamine]", "values": [{"measurement": "Solubility In Water", "setting": "[2]", "result": "Sparingly"}]}
{"smiles": "CCOC(=O)[C@H](CCc1ccccc1)N[C@@H](C)C(=O)N1CCC[C@H]1C(=O)O", "note": "[Enalapril]", "values": [{"measurement": "Solubility In Water", "setting": "[2]", "result": "Sparingly"}]}
{"smiles": "CN1CCC[C@@H]1CCO[C@](C)(c1ccccc1)c1ccc(Cl)cc1", "note": "[Clemastine fumarate]", "values": [{"measurement": "Solubility In Water", "setting": "[3]", "result": "Slightly soluble"}]}
{"smiles": "CN1CCCC(n2nc(Cc3ccc(Cl)cc3)c3ccccc3c2=O)CC1", "note": "(stereo not drawn) [Azelastine]", "values": [{"measurement": "Solubility In Water", "setting": "[2]", "result": "Insoluble"}]}
{"smiles": "O=C1NC(=O)C(c2ccccc2)(c2ccccc2)N1", "note": "[Phenytoin]", "values": [{"measurement": "Solubility In Water", "setting": "[2]", "result": "Insoluble"}]}
{"smiles": "C[C@@H]1C[C@H]2[C@@H]3CCC4=CC(=O)C=C[C@]4(C)[C@@]3(Cl)[C@@H](O)C[C@]2(C)[C@@]1(O)C(=O)CCl", "note": "[Mometasone]", "values": [{"measurement": "Solubility In Water", "setting": "[2]", "result": "Insoluble"}]}
{"smiles": "CCc1cccc2c3c([nH]c12)C(CC)(CC(=O)O)OCC3", "note": "(stereo not drawn) [Etodolac]", "values": [{"measurement": "Solubility In Water", "setting": "[2]", "result": "Insoluble"}]}
{"smiles": "CC(=O)OC[C@H]1O[C@@H]([S-])[C@H](OC(C)=O)[C@@H](OC(C)=O)[C@@H]1OC(C)=O.CCP(CC)CC.[Au+]", "note": "[Auranofin]", "values": [{"measurement": "Bioavailability", "setting": "[1]; in vivo", "result": "Low (15-25%)"}, {"measurement": "Solubility In Water", "setting": "[3]", "result": "Slightly soluble"}]}
{"smiles": "OCCN1CCN(CCCN2c3ccccc3Sc3ccc(Cl)cc32)CC1", "note": "[Perphenazine]", "values": [{"measurement": "Bioavailability", "setting": "[1]; in words", "result": "Low"}]}
{"smiles": "CC[C@H](C)C(=O)O[C@H]1C[C@@H](C)C=C2C=C[C@H](C)[C@H](CC[C@@H]3C[C@@H](O)CC(=O)O3)[C@H]21", "note": "[Lovastatin]", "values": [{"measurement": "Solubility In Water", "setting": "[2]", "result": "Insoluble"}, {"measurement": "Solubility In Water", "setting": "[3]", "result": "Insoluble"}]}
{"smiles": "NC(=O)N1c2ccccc2C=Cc2ccccc21", "note": "[Carbamazepine]", "values": [{"measurement": "Solubility In Water", "setting": "[2]", "result": "Insoluble"}]}
{"smiles": "Cc1ccc(-c2nc3ccc(C)cn3c2CC(=O)N(C)C)cc1", "note": "[Zolpidem]", "values": [{"measurement": "Solubility In Water", "setting": "[2]", "result": "Sparingly"}]}
{"smiles": "C=CCC1(CC(C)C)C(=O)NC(=O)NC1=O", "note": "[Butalbital]", "values": [{"measurement": "Solubility In Water", "setting": "[2]", "result": "Insoluble"}]}
{"smiles": "O=[N+]([O-])O[C@H]1CO[C@H]2[C@@H]1OC[C@H]2O[N+](=O)[O-]", "note": "[Isosorbide dinitrate]", "values": [{"measurement": "Solubility In Water", "setting": "[2]", "result": "Sparingly"}, {"measurement": "Solubility In Water", "setting": "[3]", "result": "Sparingly soluble"}]}
{"smiles": "CC(CCc1ccc(O)cc1)NCCc1ccc(O)c(O)c1", "note": "(stereo not drawn) [Dobutamine]", "values": [{"measurement": "Solubility In Water", "setting": "[2]", "result": "Sparingly"}]}
{"smiles": "COc1ccc2[nH]c([S+]([O-])Cc3ncc(C)c(OC)c3C)nc2c1", "note": "(stereo not drawn) [Omeprazole]", "values": [{"measurement": "Solubility In Water", "setting": "[2]", "result": "Slightly"}]}
{"smiles": "CC(C)Cc1ccc(C(C)C(=O)O)cc1", "note": "(stereo not drawn) [Ibuprofen]", "values": [{"measurement": "Solubility In Water", "setting": "[2]", "result": "Insoluble"}]}
{"smiles": "CC(=O)S[C@@H]1CC2=CC(=O)CC[C@]2(C)[C@H]2CC[C@@]3(C)[C@@H](CC[C@@]34CCC(=O)O4)[C@H]12", "note": "[Spironolactone]", "values": [{"measurement": "Solubility In Water", "setting": "[3]", "result": "Insoluble"}]}
{"smiles": "OC(CCN1CCCCC1)(c1ccccc1)C1CC2C=CC1C2", "note": "(stereo not drawn) [Biperiden]", "values": [{"measurement": "Solubility In Water", "setting": "[3]", "result": "Sparingly soluble"}]}
{"smiles": "CO[C@]12C[C@@H](COC(=O)c3cncc(Br)c3)CN(C)[C@@H]1Cc1cn(C)c3cccc2c13", "note": "[Nicergoline]", "values": [{"measurement": "Solubility In Water", "setting": "[2]", "result": "Insoluble"}]}
{"smiles": "CN1C(C(=O)Nc2ccccn2)=C(O)c2ccccc2S1(=O)=O", "note": "[Piroxicam]", "values": [{"measurement": "Solubility In Water", "setting": "[2]", "result": "Sparingly"}]}
{"smiles": "OCCN1CCN(CCCN2c3ccccc3Sc3ccc(C(F)(F)F)cc32)CC1", "note": "[Fluphenazine]", "values": [{"measurement": "Solubility In Water", "setting": "[3]", "result": "Insoluble"}]}
{"smiles": "COC(=O)C1=C(C)NC(C)=C(C(=O)OC(C)C)C1c1cccc2nonc12", "note": "(stereo not drawn) [Isradipine]", "values": [{"measurement": "Solubility In Water", "setting": "[2]", "result": "Insoluble"}, {"measurement": "Solubility In Water", "setting": "[3]", "result": "Insoluble"}]}
{"smiles": "CCOC(=O)[C@H](CCc1ccccc1)N[C@@H](C)C(=O)N1[C@H](C(=O)O)C[C@@H]2CCC[C@@H]21", "note": "[Ramipril]", "values": [{"measurement": "Solubility In Water", "setting": "[2]", "result": "Insoluble"}]}
{"smiles": "Cc1c(OCC(F)(F)F)ccnc1C[S+]([O-])c1nc2ccccc2[nH]1", "note": "(stereo not drawn) [Lansoprazole]", "values": [{"measurement": "Solubility In Water", "setting": "[2]", "result": "Insoluble"}]}
{"smiles": "NC(N)=Nc1nc(CSCCC(N)=NS(N)(=O)=O)cs1", "note": "[Famotidine]", "values": [{"measurement": "Solubility In Water", "setting": "[2]", "result": "Slightly"}, {"measurement": "Solubility In Water", "setting": "[3]", "result": "Slightly soluble"}]}
{"smiles": "COc1ccc(CCN2CCC(Nc3nc4ccccc4n3Cc3ccc(F)cc3)CC2)cc1", "note": "[Astemizole]", "values": [{"measurement": "Bioavailability", "setting": "[1]; in words", "result": "Low-moderate"}, {"measurement": "Solubility In Water", "setting": "[2]", "result": "Insoluble"}, {"measurement": "Solubility In Water", "setting": "[3]", "result": "Insoluble"}]}
{"smiles": "OCCN(CCO)c1nc(N2CCCCC2)c2nc(N(CCO)CCO)nc(N3CCCCC3)c2n1", "note": "[Dipyridamole]", "values": [{"measurement": "Solubility In Water", "setting": "[2]", "result": "Slightly"}]}
{"smiles": "CN[C@H]1CC[C@@H](c2ccc(Cl)c(Cl)c2)c2ccccc21", "note": "[Sertraline]", "values": [{"measurement": "Solubility In Water", "setting": "[2]", "result": "Slightly"}, {"measurement": "Solubility In Water", "setting": "[3]", "result": "Slightly soluble"}]}
{"smiles": "OC(Cn1cncn1)(Cn1cncn1)c1ccc(F)cc1F", "note": "[Fluconazole]", "values": [{"measurement": "Solubility In Water", "setting": "[2]", "result": "Slightly"}]}
{"smiles": "CC1=C(/C=C/C(C)=C/C=C/C(C)=C\\C(=O)O)C(C)(C)CCC1", "note": "[Isotretinoin]", "values": [{"measurement": "Solubility In Water", "setting": "[2]", "result": "Insoluble"}]}
{"smiles": "COc1ccc2cc(CCC(C)=O)ccc2c1", "note": "[Nabumetone]", "values": [{"measurement": "Solubility In Water", "setting": "[2]", "result": "Insoluble"}, {"measurement": "Solubility In Water", "setting": "[3]", "result": "Insoluble"}]}
